Measurements reported in patent publication US20250327032A1, “AGENT FOR AVOIDING IMMUNE RESPONSE OF TRANSGENIC CELLS” (HYPERION DRUG DISCOVERY CO., LTD., priority 2021, published 2025).

Legend:
Assay type in all cases: cell-based
TNF-α = TNF-α expression level (qPCR) after introduction of GFP mRNA containing pseudouridine; conditions: human mesenchymal stem cells; JSH-23 10 μM; GFP mRNA containing pseudouridine 10 pg/cell; compared to pseudouridine only
Procedure: Reduction of TNF-α expression level using JSH-23 in introduction of GFP mRNA into human mesenchymal stem cells (hMSCs) Human mesenchymal stem cells were seeded in a 6-well plate to be about 10,000 cells/cm^2. As a culture solution, αMEM (+10% serum) supplemented with 10 μM of JSH-23 was used. As a control, αMEM (+10% serum) supplemented with 0.1% (v/v) DMSO instead of JSH-23 was used as a culture solution.
A lipofection solution was prepared by adding Lipofectamine RNAiMAX and fluorescent protein GFP mRNA to OptiMEM. The GFP mRNA containing pseudouridine instead of uridine was used. It was prepared so that the amount of mRNA was 10 pg/cell. The prepared lipofection solution was mixed well according to the manufacturer's recommended protocol and allowed to stand at room temperature for about 15 minutes.
Next, each lipofection solution was added to the plate seeded with human mesenchymal stem cells or human myoblasts, and cultured in a CO2 incubator at 37° C. for about 1 day (18 hours). […]
cDNA was synthesized from the purified RNA using SuperScript™ III Reverse Transcriptase according to the manufacturer's protocol. qPCR was performed using synthesized cDNA and PCR primers and PowerTrack™ SYBR Green Master Mix. The measured Ct value of TNF-α was normalized with the Ct value of β-actin, a housekeeping gene.

human myoblasts = test: Introduction of GFP viral vector (polybrene method), yield of GFP-positive cells; conditions: JSH-23 0.1 μM; GFP viral vector MOI 10, polybrene 5 μg/mL
Procedure: Human mesenchymal stem cells were seeded in a 6-well plate to be about 2,000 cells/cm^2. Human myoblasts were seeded in another 6-well plate to be about 2,000 cells/cm^2. As a culture solution, a basal medium for each cell supplemented with JSH-23 was used. JSH-23 was added at 1 μM to the culture solution used for human mesenchymal stem cells, and at 0.1 μM to the culture solution used for human myoblasts. As a control, a basal medium, i.e., αMEM (+10% serum) for human mesenchymal stem cells and MCDB131 (+10% serum) for human myoblasts, to which 0.1% (v/v) DMSO instead of JSH-23 was added was used as a culture solution.
A mixed solution was prepared by mixing GFP viral vector and a polybrene solution. […]
Next, the above mixed solution was added to the plate seeded with human mesenchymal stem cells or human myoblasts, and cultured in a CO2 incubator at 37° C. for 24 hours.
Four days after the addition of the virus-free culture solution, the cells were detached with a cell detachment solution and centrifuged at 600×g for 5 minutes using a centrifuge, to collect the cells. The collected cells were counted using a hemocytometer. Furthermore, the GFP-positive percentage of the collected cells was measured using a flow cytometer. The yield of the number of GFP-positive cells was calculated from the number of cells counted and the GFP-positive percentage. […]

[1] = test system: human mesenchymal stem cells; test: Introduction of TERT plasmid by lipofection, number of viable cells; conditions: JSH-23 1 μM; TERT plasmid DNA 10 pg/cell
Procedure: Human mesenchymal stem cells were seeded in a 6-well plate to be about 10,000 cells/cm^2. As a culture solution, αMEM (+10% serum) supplemented with 1 μM of JSH-23 was used. As a control, αMEM (+10% serum) supplemented with 0.1% (v/v) DMSO instead of JSH-23 was used as a culture solution.
A lipofection solution was prepared by adding Lipofectamine RNAiMAX and TERT plasmid DNA to OptiMEM. The amount of plasmid DNA was prepared to be 10 pg/cell.
Next, the lipofection solution was added to the plate seeded with human mesenchymal stem cells, and cultured in a CO2 incubator at 37° C. for 18 hours. After culturing, all the culture solution comprising the lipofection solution was removed and replaced with a new culture solution having the same composition as before the addition of the lipofection solution.
After another 6 hours, the above lipofection solution was newly prepared, added again to the plate seeded with human mesenchymal stem cells, and cultured in a CO2 incubator at 37° C. for 18 hours. These steps were repeated so that the introduction of genes was performed a total of 4 times.
Twenty-four hours after the final introduction of genes, the cells were detached with a cell detachment solution, centrifuged at 600×g for 5 minutes using a centrifuge, to collect the cells. The collected cells were counted using a hemocytometer.

Cc1ccc(NCCCc2ccccc2)c(N)c1 [JSH-23]
expression level of TNF-α (normalized with β-actin) (TNF-α): further reduced
number of GFP-positive cells relative to control (human myoblasts): increased
number of viable cells compared to the control (control set to 1) [1]: ≥ 1.4 times
